Data from US8975228B2, “Use of boswellic acids for the prophylaxis and/or treatment of damage to and/or inflammation of the islets of Langerhans” (Fraunhofer-Gesellschaft zur Forderung der Angewandten …, priority 2010, dated 2015).

Tests used:
[1] = system: IL-6; assay: Serum pro-inflammatory cytokines in MLD-STZ diabetic mice; format: in vivo, mouse; conditions: 10 days i.p.; BE 150 mg/kg, AKBA 15.0 mg/kg, KBA 7.5 mg/kg
Description: (§1) Male mice were injected i.p. 40 mg/kg STZ for 5 days (STZ group, group A). A second group was, in addition to STZ, treated i.p. with 150 mg/kg BE for 10 days (group STZ+BE, group B). A further group (group C) remained untreated. After 10 days blood samples were taken.
(§2) In further tests, 15.0 mg/kg AKBA or 7.5 mg/kg KBA respectively were administered instead of 150 mg/kg BE.
(§3) Ten days after daily i.p. injections of 150 mg/kg of boswellia extract, of 15.0 mg/kg AKBA or 7.5 mg/kg KBA in MLD-STZ animals (40 mg/kg i.p. for 5 days) the presence of cytokines was determined using the commercially available Multianalyte Array TM Kits (mouse-inflammatory cytokines, SA Bioscience Corporation, USA) according to the instructions on usage provided by the manufacturer. The cytokines IL-1A, IL-1B, IL-2, IFN-γ, IL-6 and TNF-α were ascertained.

[2] = system: IL-2; assay: as above; format: in vivo, mouse; conditions: 10 days i.p.; BE 150 mg/kg, AKBA 15.0 mg/kg, KBA 7.5 mg/kg
Description: as §1, §2, §3

[3] = system: IFN-γ; assay: as above; format: in vivo, mouse; conditions: 10 days i.p.; BE 150 mg/kg, AKBA 15.0 mg/kg, KBA 7.5 mg/kg
Description: as §1, §2, §3

[4] = system: TNF-α; assay: as above; format: in vivo, mouse; conditions: 10 days i.p.; BE 150 mg/kg, AKBA 15.0 mg/kg, KBA 7.5 mg/kg
Description: as §1, §2, §3

[5] = system: IL-1B; assay: as above; format: in vivo, mouse; conditions: 10 days i.p.; BE 150 mg/kg, AKBA 15.0 mg/kg, KBA 7.5 mg/kg
Description: as §1, §2, §3

[6] = system: IL-1A; assay: as above; format: in vivo, mouse; conditions: 10 days i.p.; BE 150 mg/kg, AKBA 15.0 mg/kg, KBA 7.5 mg/kg
Description: as §1, §2, §3

[7] = system: islets of Langerhans; assay: Histology of pancreas in MLD-STZ diabetic mice (H&E, anti-CD3, anti-activated caspase 3); format: in vivo, mouse; conditions: STZ 40 mg/kg i.p. 5 days; 10 days i.p. BE 150 mg/kg, AKBA 15 mg/kg or KBA 7.5 mg/kg; examined day 10
Excerpt: (§4) The use of “multiple low dose streptozotocin” (MOL-STZ diabetes) is an acknowledged animal model for inducing diabetes that occurs frequently in association with insulitis, which corresponds to IDDM in humans. In the pathogenesis, macrophages and T-lymphocytes infiltrate the islets of Langerhans and the B-cells are destroyed. MLD-STZ induced diabetes is very well suited for investigating the anti-diabetic and/or anti-inflammatory effect of drugs on the pancreatic islets. For inducing MLD-STZ diabetes, a mouse is dosed with 40 mg/kg STZ per day intraperitoneally (i.p.) over 5 days. During this time there is no B-cell destruction. Only after 10 to 15 days after the first injection of STZ do signs of inflammation of the islets of Langerhans appear, when T-lymphocytes infiltrate and the B-cells are being destroyed. After about 16 days, the symptoms of the inflammation have disappeared again. Most B-cells have died. As a consequence, insulin secretion is reduced or no longer existent (cf. McEvoy et al. 1984, “Multiple low-dose streptozotocin-induced diabetes in the mouse”, Evidence for stimulation of a cytotoxic cellular immune response against an insulin-producing beta cell line, J Clin Invest, 74:715-22). This animal model of experimental induction of diabetes mellitus essentially corresponds with the pathogenesis of type 1 diabetes in young humans.
In order to investigate the effect of an extract containing boswellic acids on the damage and/or inflammation of the islets of Langerhans, a group of mice was dosed with streptozotocin alone and another group of mice was dosed with streptozotocin plus boswellic acid extract (a mixture of boswellic acids with an overall concentration of all boswellic acids of 62%) The aforesaid extract contained 5.51% KBA and 4.96% AKBA. From the 1st to the 10th day, C3M/HeN and Bk +/+ were administered i.p with a dose of 150 mg/kg body weight in male mice of strains bred in the laboratory. […]

[8] = Blood glucose level in MLD-STZ diabetic mice; format: in vivo, mouse; conditions: for STZ-induced increase of the blood glucose level: single substance i.p. daily 10 days, AKBA 15 mg/kg, KBA 7.5 mg/kg
Excerpt: as §4
For inducing MLD-STZ diabetes, the animals were injected i.p. 40 mg/kg STZ a day for a period of five days. In group A the animals were additionally treated with 150 mg/kg BE i.p. for 5 days (FIG. 5A), in group B for 10 days (FIG. 5B) and in group C for 21 days (FIG. 5C).
The animals were treated for 5 days with STZ as described above. AKBA in solution in Tween 80 was injected i.p. daily for 10 days.

[9] = system: NFK B; conditions: in vitro, technical literature; cited from earlier work
[10] = molecular target: Cyclooxygenase 1 (prostaglandin) (Homo sapiens, UniProt P23219); conditions: in vitro, technical literature; cited from earlier work
Sequence of Cyclooxygenase 1 (prostaglandin) (P23219 24-599): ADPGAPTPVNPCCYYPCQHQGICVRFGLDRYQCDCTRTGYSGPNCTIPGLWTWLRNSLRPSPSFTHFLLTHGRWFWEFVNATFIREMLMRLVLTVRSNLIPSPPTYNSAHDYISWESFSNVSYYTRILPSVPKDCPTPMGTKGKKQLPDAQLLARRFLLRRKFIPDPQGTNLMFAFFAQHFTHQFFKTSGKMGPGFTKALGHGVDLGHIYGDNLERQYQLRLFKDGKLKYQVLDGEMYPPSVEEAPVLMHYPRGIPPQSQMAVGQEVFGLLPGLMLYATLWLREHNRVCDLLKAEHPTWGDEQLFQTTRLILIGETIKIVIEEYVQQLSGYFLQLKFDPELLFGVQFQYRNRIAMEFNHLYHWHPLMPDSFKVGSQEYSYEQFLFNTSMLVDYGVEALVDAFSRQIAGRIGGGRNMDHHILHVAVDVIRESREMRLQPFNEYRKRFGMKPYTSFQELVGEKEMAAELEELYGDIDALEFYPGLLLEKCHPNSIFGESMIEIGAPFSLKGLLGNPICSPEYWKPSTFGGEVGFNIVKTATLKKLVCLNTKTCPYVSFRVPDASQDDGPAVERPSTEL

[11] = molecular target: T1, Elastase (Homo sapiens, UniProt P08246); conditions: in vitro, technical literature; cited from earlier work
T1 sequence (P08246 30-267): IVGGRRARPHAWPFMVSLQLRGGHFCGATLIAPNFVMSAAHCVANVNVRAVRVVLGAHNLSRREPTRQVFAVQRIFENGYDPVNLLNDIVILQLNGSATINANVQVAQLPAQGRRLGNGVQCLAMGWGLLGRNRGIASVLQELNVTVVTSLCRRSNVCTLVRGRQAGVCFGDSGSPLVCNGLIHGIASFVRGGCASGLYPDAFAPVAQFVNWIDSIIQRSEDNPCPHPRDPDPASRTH

[12] = system: C3-Convertase; conditions: in vitro, technical literature; cited from earlier work
[13] = system: IL-2; conditions: in vitro, technical literature; cited from earlier work
[14] = system: IL-1β; conditions: in vitro, technical literature; cited from earlier work
[15] = system: TNF-α; conditions: in vitro, technical literature; cited from earlier work
[16] = system: IFN-γ; conditions: in vitro, technical literature; cited from earlier work
[17] = molecular target: T2, 5-Lipoxygenase (leukotriene) (Homo sapiens, UniProt P09917); conditions: in vitro, technical literature; cited from earlier work
T2 sequence (P09917 1-674): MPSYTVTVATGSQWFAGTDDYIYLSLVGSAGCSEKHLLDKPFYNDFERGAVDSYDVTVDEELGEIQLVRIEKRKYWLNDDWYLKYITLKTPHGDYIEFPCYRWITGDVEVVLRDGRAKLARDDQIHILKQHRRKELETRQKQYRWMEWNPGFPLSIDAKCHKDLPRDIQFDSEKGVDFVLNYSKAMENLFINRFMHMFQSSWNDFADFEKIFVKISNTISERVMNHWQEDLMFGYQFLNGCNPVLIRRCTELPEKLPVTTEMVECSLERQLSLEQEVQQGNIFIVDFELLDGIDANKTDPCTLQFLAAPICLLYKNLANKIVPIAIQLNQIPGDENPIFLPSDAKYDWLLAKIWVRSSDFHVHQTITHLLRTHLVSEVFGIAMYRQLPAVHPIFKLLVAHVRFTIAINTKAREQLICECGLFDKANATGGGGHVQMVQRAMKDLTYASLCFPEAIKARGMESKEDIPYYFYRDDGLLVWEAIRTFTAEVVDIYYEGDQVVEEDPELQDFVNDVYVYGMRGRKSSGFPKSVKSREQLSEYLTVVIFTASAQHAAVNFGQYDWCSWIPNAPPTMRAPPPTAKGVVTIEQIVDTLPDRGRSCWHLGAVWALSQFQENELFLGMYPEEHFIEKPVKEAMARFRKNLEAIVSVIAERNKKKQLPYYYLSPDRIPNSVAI

## C[C@H]1[C@H](C)CC[C@]2(C)CC[C@]3(C)C(=CC(=O)[C@@H]4[C@@]5(C)CC[C@@H](O)[C@](C)(C(=O)O)[C@@H]5CC[C@]43C)[C@H]12 [KBA, 11-keto-β-boswellic acid]
[1]
  STZ-induced increase in serum IL-6: reduced or prevented
[2]
  STZ-induced increase in serum IL-2: reduced or prevented
[3]
  STZ-induced increase in serum IFN-γ: reduced or prevented
[4]
  STZ-induced increase in serum TNF-α: reduced or prevented
[5]
  STZ-induced increase in serum IL-1B: reduced or prevented
[6]
  STZ-induced increase in serum IL-1A: reduced or prevented
[7]
  Signs of inflammation of the islets of Langerhans (H&E staining, T-lymphocytes by CD3): neither signs of inflammation
[8]
  STZ-induced increase of the blood glucose level: reduced

## CC(=O)O[C@@H]1CC[C@@]2(C)[C@@H](CC[C@]3(C)[C@@H]2C(=O)C=C2[C@@H]4[C@@H](C)[C@H](C)CC[C@]4(C)CC[C@]23C)[C@@]1(C)C(=O)O [AKBA, acetyl-11-keto-β-boswellic acid]
[9]
  Effect on NFK B: Lowered
[10]
  Effect on Cyclooxygenase 1 (prostaglandin): Lowered
[11]
  Effect on Elastase: Lowered
[12]
  Effect on C3-Convertase: Lowered
[1]
  STZ-induced increase in serum IL-6: reduced or prevented
[2]
  STZ-induced increase in serum IL-2: reduced or prevented
[3]
  STZ-induced increase in serum IFN-γ: reduced or prevented
[4]
  STZ-induced increase in serum TNF-α: reduced or prevented
[5]
  STZ-induced increase in serum IL-1B: reduced or prevented
[6]
  STZ-induced increase in serum IL-1A: reduced or prevented
[13]
  Effect on IL-2: Lowered
[7]
  Signs of apoptosis (activated caspase 3): only minor signs of apoptosis
  Signs of inflammation of the islets of Langerhans (H&E staining, T-lymphocytes by CD3): no signs of inflammation
[8]; AKBA 15 mg/kg i.p. 10 days
  Blood glucose level after administration was discontinued after 10 days: no significant further increase
[8]
  STZ-induced increase of the blood glucose level: significant reduction
[14]
  Effect on IL-1β: Lowered
[15]
  Effect on TNF-α: Lowered
[16]
  Effect on IFN-γ: Lowered
[17]
  Effect on 5-Lipoxygenase (leukotriene): Lowered
